Test results: US20250262192A1, “PROGNOSTIC PATHWAYS FOR HIGH RISK SEPSIS PATIENTS” (KONINKLIJKE PHILIPS N.V., priority 2021, published 2025)
“And” between values parts separate entries of the source, which are not always exact repeats. Equal entries are not always repeated.

Assays:
[1] = test system: TGFbeta cellular signaling pathway; experiment: THP-1 cells cultured 24 hrs with LPS, then DHT or AR inhibitor (FIG. 35, Table 7); pathway analysis; type: cell-based
Protocol: (§1) FIG. 35 Schematic overview of AR inhibitor experiment. Depicts the experimental setup to determine if AR inhibitors can be used to mitigate the effect of LPS on monocytes (THP-1 cells). […] In a parallel experiment, THP-1 cells are first cultured for 24 hours with LPS, after which the medium is changed and the cells are cultured with one of ARCC-4, ARD-266, A-458 and bicalutamide.
(§2) FIG. 35 describes the experimental set-up used. […] In a parallel experiment, THP-1 cells are first cultured for 24 hours with LPS, after which the medium is changed and the cells are cultured with one of ARCC-4, ARD-266, A-458 and bicalutamide.
As expected the remaining AR inhibitors were not able to mitigate the effect of LPS on TGFbeta cellular signaling pathway activity.
AR and TGFbeta pathways are functional in monocytic cells (Table 7).

[2] = test system: AR cellular signaling pathway; experiment: THP-1 sepsis prevention model, qPCR-based STP activity score; type: cell-based
[3] = test system: AR pathway; experiment: MOLT-4 lymphoid cell line stimulated with LPS or DHT and inhibited with Bicalutamide or Enzalutamide (Table 9B); type: cell-based; settings: stimulated 5 hours and subsequently inhibited
Protocol: (§3) MOLT-4 (ATCC CRL-1582) were cultured in RPMI1640 media, supplemented with 10% FBS, 1% glutamax and 1% pen strep at 37° C. 5% CO2.
(§4) After stimulation cells were harvested and RNA was extracted using the RNeasy mini kit (Qiagen, 74104). qPCR-based STP activity scores were calculated using the Philips Research OncoSignal platform (www.philips.com/oncosignal), as described herein.

[4] = test system: TGFBeta pathway; experiment: as above; type: cell-based
Protocol: as §3, §4

[5] = test system: AR pathway; experiment: THP-1 cell line stimulated with LPS or DHT and inhibited with Bicalutamide or Enzalutamide (Table 9A); type: cell-based
Protocol: (§5) LPS is considered the main mediator of the sepsis symptoms. An in vitro experiment was designed where monocytes were stimulated with LPS and subsequently treated with a variety of inhibitors. […] 26 Aug.
as §4

[6] = test system: TGFBeta pathway; experiment: as above; type: cell-based
Protocol: as §5, §4

[7] = test system: ER cellular signaling pathway; type: cell-based
Protocol: as §1, §2

[8] = test system: HH (Hedgehog) cellular signaling pathway; type: cell-based
Protocol: as §1, §2

[9] = test system: TGFbeta cellular signaling pathway; experiment: THP-1 sepsis prevention model, qPCR-based STP activity score; type: cell-based
[10] = test system: AR cellular signaling pathway; experiment: THP-1 cells cultured 24 hrs with LPS, then DHT or AR inhibitor (FIG. 35, Table 7); pathway analysis; type: cell-based
Protocol: as §1, §2
All experimental conditions were subjected to cellular signaling pathways analysis.

[11] = test system: AR pathway; experiment: PBMCs of sepsis patients treated in vitro 24 hours with inhibitors, pathway activity score; type: cell-based, human; design: AR Pathway activity scores of sepsis PBMC patients: scale not given here; settings: EXP 2, individual patient samples, Resatorvid 10 uM, D4-abiraterone 10 uM, A-485 100 nM, Galunisertib 10 uM
Protocol: (§6) PBMC samples from healthy volunteers and sepsis patients were obtained via Tissue solutions. Briefly, cryopreserved PBMCs were first washed with washing buffer (PBS/1% BSA/2 mM EDTA), centrifuged and pellet resuspended in culture medium (RPM11640 without phenol red+8.5% charcoal stripped FBS+1% Glx+1% p/s). 0.5·10^5-1·10^6 cells were seeded per well in 24 wells plate and rested for 1 hour before treatment experiment. 10 PBMC samples from healthy donors were used to; (1) measure the baseline pathway levels, (2) activate with LPS
(§7) Sepsis treatment model: PBMC derived from sepsis patients (n=20) were treated 24 hours with compounds, DMSO or combination of compounds. (PBMC from healthy and sepsis patients are originating from the same hospital to minimize bias in sample prep). After stimulation cells were harvested and RNA was extracted using the RNeasy mini kit (Qiagen, 74104). qPCR was performed using the Philips Research OncoSignal platform.
(§8) In total 18 PBMCs sepsis samples were treated for 24 hours with selected inhibitors (and combinations), 6 patient samples per experiment.

[12] = test system: TGFbeta pathway; experiment: as above; type: cell-based, human; design: scale not given here; settings: EXP 2, individual patient samples, Resatorvid 10 uM, D4-abiraterone 10 uM, A-485 100 nM, Galunisertib 10 uM
Protocol: as §6, §7, §8

[13] = 24 hrs 25 uM Bicalutamide or DMSO, then 24 hrs DHT
[14] = DHT (25 nM) alone or + Bicalutamide (5 uM) or Enzalutamide (5 uM)
[15] = THP-1, 24 hours LPS, medium changed, then inhibitor
[16] = 24 hrs 25 uM Bicalutamide or DMSO, then 24 hrs LPS
[17] = 24 hrs 25 uM Bicalutamide, then 24 hrs PBS
[18] = THP-1, DHT (25 nM) alone or + Bicalutamide (5 uM) or Enzalutamide (5 uM), stimulated 5 hours and subsequently inhibited
[19] = THP-1, LPS (50 ng/mL) alone or + Bicalutamide (5 uM) or Enzalutamide (5 uM), stimulated 5 hours and subsequently inhibited

Molecule: TGFbeta: original ligand for the TGFbeta STP added to monocytic cells
- TGFbeta pathway activity, ligand stimulation ([1]; monocytic cells (THP-1)): induced activity

Molecule: C[C@]12CCC(=O)C[C@@H]1CC[C@@H]1[C@@H]2CC[C@]2(C)[C@@H](O)CC[C@@H]12 [DHT, dihydrotestosterone]
- Average AR STP score [2, 13]: 6.13 normalized scores
- AR STP activity [3, 14]: 7.5 normalized scores
- TGFbeta STP activity [4]: 14.1 normalized scores
- AR STP activity [5]: 8.7 normalized scores
- TGFbeta STP activity [6]: 12.9 normalized scores
- TGFbeta signaling activity, effect of stimulus (FIG. 39) [1]: did not increase
- ER cellular signaling pathway activity (FIG. 37) [7]: not substantially affected
- HH cellular signaling pathway activity (FIG. 38) [8]: not substantially affected
- Average TGFbeta STP score [9, 13]: 1.27 normalized scores
- AR cellular signaling pathway activity, effect of stimulus (FIG. 36) [10]: increase

Molecule: C[C@]12CC[C@H]3[C@@H](CCC4=CC(=O)CC[C@@]43C)[C@@H]1CC[C@@H]2O [Testosterone]
- AR pathway activity, ligand stimulation ([10]; THP-1 cells): induced activity

Molecule: CNC(=O)Nc1ccc2c(c1)CC[C@@]21OC(=O)N(CC(=O)N(Cc2ccc(F)cc2)[C@@H](C)C(F)(F)F)C1=O [A-485]
- AR Pathway activity scores of sepsis PBMC patients [11]: 24 and 27 and 25
- TGFbeta Pathway activity scores of sepsis PBMC patients [12]: 28 and 33 and 35
- LPS induced TGFbeta activity after addition of inhibitor (FIG. 39) [1, 15]: reduction of LPS induced TGFbeta activity
- LPS induced AR activity after addition of inhibitor (FIG. 36) [10, 15]: reduction of AR activity

Molecule: CC(O)(CS(=O)(=O)c1ccc(F)cc1)C(=O)Nc1ccc(C#N)c(C(F)(F)F)c1 (stereo not drawn) [Bicalutamide]
- Average AR STP score [2, 13]: 3.17 normalized scores
- Average AR STP score [2, 16]: 12.93 normalized scores
- Average AR STP score [2, 17]: 2.63 normalized scores
- AR STP activity [3, 14]: 7.4 normalized scores
- AR STP activity ([3]; LPS (50 ng/mL) alone or + Bicalutamide (5 uM) or Enzalutamide (5 uM)): 7.2 normalized scores
- TGFbeta STP activity ([4]; MOLT-4, DHT (25 nM) alone or + Bicalutamide (5 uM) or Enzalutamide (5 uM), stimulated 5 hours and subsequently inhibited): 13.9 normalized scores
- TGFbeta STP activity ([4]; MOLT-4, LPS (50 ng/mL) alone or + Bicalutamide (5 uM) or Enzalutamide (5 uM), stimulated 5 hours and subsequently inhibited): 14.1 normalized scores
- AR STP activity [5, 18]: 6.7 normalized scores
- AR STP activity [5, 19]: 20.2 normalized scores
- TGFbeta STP activity [6, 18]: 15.6 normalized scores
- TGFbeta STP activity [6, 19]: 34.6 normalized scores
- Average TGFbeta STP score [9, 13]: 1.04 normalized scores
- Average TGFbeta STP score [9, 16]: 9.78 normalized scores
- Average TGFbeta STP score [9, 17]: 1.25 normalized scores
